Data taken from patent US20180325914A1, “INCREASING STORAGE OF VITAMIN A, VITAMIN D AND/OR LIPIDS” (Salk Institute for Biological Studies, priority 2014, published 2018).

Tested on: pro-fibrotic gene expression (COL1A1) in LX-2 cells
Test: qRT-PCR of pro-fibrotic gene expression in LX-2 cells
Details: 500 nM, 16 hr, equimolar doses, absence or presence of TGFβ1 (5 ng/ml), compared with JQ1

SMILES	inhibitory effects on the expression of a wide range of pro-fibrotic genes
COc1cc2c(cc1-c1c(C)noc1C)ncc1[nH]c(=O)n([C@H](C)c3ccccn3)c12 [I-BET-151]	comparable inhibitory effects to JQ1
COc1ccccc1S(=O)(=O)Nc1ccc2c(c1)CN(C)C(=O)N2 [PFI-1]	comparable inhibitory effects to JQ1
